Where two headings read alike, the source gives them in different places. Ends that are not written are not given here.
Key:
[1] = tested on: Bacillus subtilis ATCC 6633; type: cell-based; conditions: ATCC 6633, 20 h
Experimental: (§1) The minimal inhibitory concentration (MIC) of all screened peptides were determined by the microbroth dilution method. Bacterial strains included four Gram‐negative strains (Acinetobacter baumanii ATCC 17978, Acinetobacter baumanii ATCC 19606, Escherichia coli ATCC 25922, Escherichia coli DH5 α ) and seven Gram‐positive strains (Staphylococcus aureus ATCC 25923, Staphylococcus aureus ATCC 6538, Bacillus subtilis ATCC 6633, Enterococcus faecalis ATCC 29212, Micrococcus luteus CMCC(B) 28001, Staphylococcus capitis ATCC 27842, Staphylococcus hominis ATCC 27844). Bacteria were incubated overnight at 37 °C and diluted to 5 × 10^5 cfu·mL^−1. Then 99 µL bacterial suspension was added into each well of a 96‐well plate. Peptides were dissolved in cation adjusted Mueller‐Hinton (CAMHB) medium at an initial concentration of 1 mg·mL^−1 and then diluted in twofold gradient concentrations, ranging from 0.125 to 128 µg·mL^−1 with 1 µL in each well. The plate was placed in incubator for 20 h at 37 °C. The lowest concentration of peptide causing no observed bacteria grow was its MIC.

[2] = tested on: Micrococcus luteus CMCC(B) 28001; type: cell-based; conditions: CMCC(B) 28001, 20 h
Experimental: as §1

[3] = synthesis report, ref ChinaPeptides Co., Ltd. quality reports, Figure S7, cited from earlier work
[4] = tested on: Staphylococcus aureus ATCC 6538; type: cell-based; conditions: ATCC 6538, 20 h
Experimental: as §1

Escherichia coli DH5α = type: cell-based; conditions: 20 h
Experimental: as §1

[5] = tested on: Staphylococcus capitis ATCC 27842; type: cell-based; conditions: ATCC 27842, 20 h
Experimental: as §1

[6] = tested on: Escherichia coli ATCC 25922; type: cell-based; conditions: ATCC 25922, 20 h
Experimental: as §1

[7] = tested on: Acinetobacter baumanii ATCC 17978; type: cell-based; conditions: ATCC 17978, 20 h
Experimental: as §1

[8] = tested on: Staphylococcus aureus ATCC 25923; type: cell-based; conditions: ATCC 25923, 20 h
Experimental: as §1

[9] = tested on: Staphylococcus hominis ATCC 27844; type: cell-based; conditions: ATCC 27844, 20 h
Experimental: as §1

[10] = tested on: Enterococcus faecalis ATCC 29212; type: cell-based; conditions: ATCC 29212, 20 h
Experimental: as §1

[11] = tested on: Acinetobacter baumanii ATCC 19606; type: cell-based; conditions: ATCC 19606, 20 h
Experimental: as §1

HEK293T cells = assay: Cytotoxicity, Alamar Blue assay; type: cell-based
Experimental: Cytotoxicity was evaluated using the Alamar Blue assay on HEK293T cells. HEK293T cells were cultured in DMEM supplemented with 10% FBS and incubated at 37 °C with 5% CO2. Amphotericin B and staurosporine were used as controls. Peptide solutions were diluted in PBS (pH 7.4) with final concentrations ranging from 1 to 128 µg·mL^−1. The cells were treated with peptides for 72 h. After that, 10 µL Alamar Blue was added into each well. The plate was incubated for 4 hours under dark condition and detected the absorbance at 570 nm. The inhibition rate of cell growth was calculated via (OD570, peptide ‐ OD570, PBS) / (OD570, staurosporine ‐ OD570, PBS). The half maximal cytotoxic concentration (CC50) was fitted with GraphPad Prism. Each test was conducted in triplicate.

Row | Molecule | MIC B. subtilis ATCC 6633 [1] | MIC M. luteus CMCC(B) 28001 [2] | Solubility ([3]; in 25%ACN/75%H2O) | MIC S. aureus ATCC 6538 [4] | MIC E. coli DH5α (Escherichia coli DH5α) | MIC S. capitis ATCC 27842 [5] | MIC E. coli ATCC 25922 [6] | MIC A. baumannii ATCC 17978 [7] | MIC S. aureus ATCC 25923 [8] | MIC S. hominis ATCC 27844 [9] | MIC E. faecalis ATCC 29212 [10] | MIC A. baumannii ATCC 19606 [11] | Solubility ([3]; in 15%ACN/85%H2O) | Cytotoxicity CC50 HEK293T (HEK293T cells; HEK293T, Alamar Blue, 72 h treatment, 1 to 128 µg/mL, absorbance 570 nm, triplicate) | Cytotoxicity CC50 HEK293T (HEK293T cells)
1 | GPIHRLINPFFNLLQGIFTN [Peptide 98] | 32 µg/mL | 128 µg/mL | 1000 µg/mL |  |  |  |  |  |  |  |  |  |  |  | 
2 | IYKILQLFHKRFKKGFFG [Peptide 1304] | 4 µg/mL | 16 µg/mL |  | 16 µg/mL | 32 µg/mL | 4 µg/mL | 64 µg/mL | 16 µg/mL | 128 µg/mL | 4 µg/mL | 128 µg/mL | 16 µg/mL | 1000 µg/mL |  | 
3 | AKLVALVNKFIGYLKQNTYC [Peptide 201] | 32 µg/mL |  | 1000 µg/mL |  |  |  |  |  |  |  |  |  |  |  | 
4 | KLAKLLKLLLWAQNELDQKK [Peptide 623] | 8 µg/mL | 64 µg/mL |  | 32 µg/mL | 128 µg/mL | 64 µg/mL | 128 µg/mL | 32 µg/mL | 128 µg/mL | 16 µg/mL |  | 32 µg/mL | 1000 µg/mL |  | 
5 | CN[C@@H]1C[C@H]2O[C@@](C)([C@@H]1OC)n1c3ccccc3c3c4c(c5c6ccccc6n2c5c31)C(=O)NC4 [Staurospotine, Staurosporine] |  |  |  |  |  |  |  |  |  |  |  |  |  | 0.26 µg/mL | 
6 | C[C@@H]1[C@H](O)[C@@H](C)/C=C/C=C/C=C/C=C/C=C/C=C/C=C/[C@H](O[C@@H]2O[C@H](C)[C@@H](O)[C@H](N)[C@@H]2O)C[C@@H]2O[C@](O)(C[C@@H](O)C[C@@H](O)[C@H](O)CC[C@@H](O)C[C@@H](O)CC(=O)O[C@H]1C)C[C@H](O)[C@H]2C(=O)O [Amphotericin B] |  |  |  |  |  |  |  |  |  |  |  |  |  |  | 67.06 µg/mL
7 | KKIASIIYAHVKALRARKILDNLKRLAANRP [Peptide 615] | 16 µg/mL | 64 µg/mL |  |  | 8 µg/mL | 16 µg/mL | 64 µg/mL | 32 µg/mL |  | 8 µg/mL |  | 16 µg/mL | 1000 µg/mL |  | 
8 | GFKSKLEQISGICRPLFAAMWK [Peptide 68] | 64 µg/mL | 128 µg/mL | 1000 µg/mL |  |  | 16 µg/mL |  |  |  | 32 µg/mL |  |  |  |  | > 128 µg/mL
9 | KVKVLIIRKLTRHIAKLKSKK [Peptide 58] | 8 µg/mL | 8 µg/mL |  |  |  | 4 µg/mL |  |  |  | 2 µg/mL | 128 µg/mL | 128 µg/mL | 1000 µg/mL |  | 

From publication PMC12904036, “Mechanism‐Driven Screening of Membrane‐Targeting and Pore‐Forming Antimicrobial Peptides” (Advanced Science, 2025)
